For series [1], the system named is S. aureus. In words: Urinary bactericidal titers (UBT) and AUBTC of volunteers' urine. It counts as cell-based. Particulars: urine after gemifloxacin 320 mg or ofloxacin 400 mg.
The test system of a further series is K. pneumoniae. Described as above. It counts as cell-based. The conditions noted are these: K. pneumoniae (16) Laboratory No. 595; urine after gemifloxacin 320 mg or ofloxacin 400 mg.
Series [2] deals with enteropathogenic bacterial strains. In words: MIC by agar dilution (NCCLS M7-A4), enteropathogenic isolates pooled. Format: cell-based. Particulars: all enteropathogenic isolates except C. jejuni.
Details of series [3]: species or system healthy volunteers. The conditions noted are these: human, in vivo, po.
Series [4] relates to anaerobic cocci and Gram positive pathogens. In words: organism not typed. Format: cell-based. The conditions noted are these: read-out: MIC90s.
The subject of series [5] is S. aureus. Kind of series: MIC and MBC by microdilution in Mueller-Hinton broth, uropathogens. It counts as cell-based. Particulars: Staphylococcus aureus. As to the method: MICs and MBCs were determined by a microdilution method with Mueller-Hinton broth. An inoculum of 1.3-9.4 x 10^5 colony forming units (CFU) per ml was used.
Strains included a reference strain E. coli ATCC 25922, susceptible to nalidixic acid (Nal-S) and the following clinical isolates obtained from complicated UTI patients: E. coli (resistant to nalidixic acid), K. pneumoniae, P. mirabilis , P. aeruginosa, […] (3 strains) and Enterococcus faecalis (2 strains).
(In general: Dilution methods test growth across graded concentrations, often in twofold steps.)

Another series concerns E. coli. Kind of series: Urinary bactericidal titers (UBT) and AUBTC of volunteers' urine. It counts as cell-based. The conditions noted are these: for AUBTC (range): urine after gemifloxacin 320 mg or ofloxacin 400 mg; for time for which median UBTs exceed 0: reference strain E. coli ATCC 25922, 320 mg gemifloxacin / 400 mg ofloxacin.
The next series has as its system P. mirabilis. The series is described as above. It counts as cell-based. Particulars: P. mirabilis (16) Laboratory No. 414; urine after gemifloxacin 320 mg or ofloxacin 400 mg.
The mark [6] stands for this setting: S. aureus (13) Laboratory No. 636.
[7] abbreviates: S. aureus (16) Laboratory No. 83.
The mark [8] stands for this setting: S. aureus (16) Laboratory No. 161.
Setting [9] is: S. aureus Laboratory No. 83, inoculum 7.1 CFU 10^5/ml.
Setting [10] is: S. aureus Laboratory No. 161, inoculum 9.4 CFU 10^5/ml.
Where [11] appears, read: S. aureus Laboratory No. 636, inoculum 5.6 CFU 10^5/ml.
The mark [12] stands for this setting: S. aureus isolate (2/32), quinolone-resistant.
The mark [13] stands for this setting: E. coli (16) Laboratory No. 523.

≈ marks a conversion by molar mass, not a printed value.

Usually MBC stands for the smallest concentration meeting the test's criterion for killing. Read a high MBC as less potent killing. Turning to `CO/N=C1\CN(c2nc3c(cc2F)c(=O)c(C(=O)O)cn3C2CC2)CC1CN` (racemic) [Gemifloxacin, (R,S)-7-(3-aminomethyl-4-methoxyiminopyrrolidin-1-yl)-1-cyclopropyl-6-fluoro-4-oxo-1,4-dihydro-1,8-naphthyridine-3-carboxylic acid], the “AUBTC (range)” value in the series with S. aureus [1] (setting [6]) is recorded as 108 (0-408); in the series with S. aureus [1] (setting [7]), 540 (246-834); with S. aureus [1] (setting [8]), 60 (0-144); in the series with K. pneumoniae, 321 (72-564); with E. coli (E. coli (16) ATCC 25922), 546 (174-816); in the series on E. coli (setting [13]), 237(48-384). In addition, the “AUBTC (range)” value with P. mirabilis was 261 (120-510). For the same molecule, in series [2], the “concentration inhibiting 100% of isolates” value was 0.25 mg/L. Besides, the tolerability entry in series [3] was “well tolerated”. In addition, the MIC was 0.125 to 2 µg/mL (≈ 0.321 to 5.14 µM) in series [4]; 0.008 µg/mL (≈ 0.0205 µM) against S. aureus [5] (setting [9]); 0.25 µg/mL (≈ 0.642 µM) in the series with S. aureus [5] (setting [10]); 2 µg/mL (≈ 5.14 µM) in the series on S. aureus [5] (setting [11]); 0.008 µg/mL (≈ 0.0205 µM) against S. aureus [5] (S. aureus isolate (0.008/0.25)); 0.25 µg/mL (≈ 0.642 µM) in the series on S. aureus [5] (S. aureus isolate (0.25/4)). This molecule also registered an MIC with S. aureus [5] (setting [12]) of 2 µg/mL (≈ 5.14 µM). In addition, the values for the minimal bactericidal concentration (MBC) in the series on S. aureus [5] (setting [9]), in the series on S. aureus [5] (setting [10]) and against S. aureus [5] (setting [11]) were 0.008 µg/mL (≈ 0.0205 µM), 0.25 µg/mL (≈ 0.642 µM) and 2 µg/mL (≈ 5.14 µM), respectively. Moreover, the “time for which median UBTs exceed 0” value in the series with E. coli turned out to be 5 days.

Turning to `CC1COc2c(N3CCN(C)CC3)c(F)cc3c(=O)c(C(=O)O)cn1c23` (centres unmarked) [Ofloxacin, ofloxacin], the “AUBTC (range)” value is reported as 105 (0-279) with S. aureus [1] (setting [6]); 387 (162-570) in the series with S. aureus [1] (setting [7]); 39 (0-78) in the series on S. aureus [1] (setting [8]); 414 (180-636) in the series with K. pneumoniae; 537 (258-888) in the series with E. coli (E. coli (16) ATCC 25922); 276 (90-516) in the series on E. coli (setting [13]). For the same molecule, the “AUBTC (range)” value with P. mirabilis is 438 (276-654). Further, the tolerability entry in series [3] is “well tolerated”. Moreover, the MBC turned out to be 0.25 µg/mL (≈ 0.692 µM) in the series with S. aureus [5] (setting [9]), 4 µg/mL (≈ 11.1 µM) in the series on S. aureus [5] (setting [10]) and 32 µg/mL (≈ 88.6 µM) in the series on S. aureus [5] (setting [11]). Moreover, the MIC against S. aureus [5] (setting [9]) was 0.25 µg/mL (≈ 0.692 µM); in the series on S. aureus [5] (setting [10]), 4 µg/mL (≈ 11.1 µM); against S. aureus [5] (setting [11]), 32 µg/mL (≈ 88.6 µM); in the series on S. aureus [5] (S. aureus isolate (0.008/0.25)), 0.25 µg/mL (≈ 0.692 µM); in the series on S. aureus [5] (S. aureus isolate (0.25/4)), 4 µg/mL (≈ 11.1 µM); with S. aureus [5] (setting [12]), 32 µg/mL (≈ 88.6 µM). Also, the “time for which median UBTs exceed 0” value with E. coli turned out to be 4 days.
